{
  "source": "ChEMBL document CHEMBL3585251",
  "about": "“Tetracycline analogues with a selective inhibitory effect on HIF-1” (Medchemcomm, 2014)",
  "key": {"[1]": {"biological_target": "T1, Hypoxia-inducible factor 1-alpha (Homo sapiens, UniProt Q16665)", "experiment": "Inhibition of human HIF1alpha-mediated transcription expressed in human U251 cells co-transfected with pGL2-TK-HRE incubated for 24 hrs by luciferase reporter gene assay", "format": "cell-based, U-251"}, "[2]": {"tested_on": "U-251", "experiment": "Effect on basal transcription in human U251 cells co-transfected with pGL3 incubated for 24 hrs by luciferase reporter gene assay", "format": "ADME, cell-based", "details": "U-251, 24 h"}, "[3]": {"experiment": "Selectivity index, ratio of EC50 for effect on basal transcription in human U251 cells co-transfected with pGL3 to EC50 for Inhibition of human HIF1alpha expressed in human U251 cells co-transfected with pGL2-TK-HRE", "design": "species or system U-251"}, "[4]": {"tested_on": "U-251", "experiment": "Inhibition of human HIF1alpha mRNA expression in wild type human U251 cells at 10 uM incubated for 8 hrs", "format": "functional", "details": "U-251, 8 h"}, "[5]": {"tested_on": "U-251", "experiment": "Inhibition of human HIF1alpha mRNA expression in wild type human U251 cells at 10 uM incubated for 16 hrs", "format": "functional", "details": "U-251, 16 h"}, "[6]": {"tested_on": "U-251", "experiment": "Inhibition of human HIF1alpha mRNA expression in wild type human U251 cells at 1 uM incubated for 8 hrs under hypoxic condition (reference value: 0.7 no unit)", "format": "functional"}, "[7]": {"tested_on": "U-251", "experiment": "Inhibition of human HIF1alpha mRNA expression in wild type human U251 cells at 10 uM incubated for 8 hrs under hypoxic condition (reference value: 0.7 no unit)", "format": "functional"}, "[8]": {"tested_on": "U-251", "experiment": "Inhibition of human HIF1alpha mRNA expression in wild type human U251 cells at 1 uM incubated for 16 hrs under hypoxic condition (reference value: 0.9 no unit)", "format": "functional"}, "[9]": {"tested_on": "U-251", "experiment": "Inhibition of human HIF1alpha mRNA expression in wild type human U251 cells at 10 uM incubated for 16 hrs under hypoxic condition (reference value: 0.9 no unit)", "format": "functional"}, "[10]": {"tested_on": "U-251", "experiment": "Inhibition of human HIF1alpha mRNA expression in wild type human U251 cells at 1 and 10 uM incubated for 8 and 16 hrs under normoxic condition", "format": "functional, cell-based"}, "[11]": {"tested_on": "U-251", "experiment": "Effect on basal transcription in wild type human U251 cells at 1 and 10 uM incubated for 8 and 16 hrs under normoxic condition", "format": "ADME, cell-based", "details": "u-251, 16 h"}, "[12]": {"biological_target": "T1, Hypoxia-inducible factor 1-alpha", "experiment": "Inhibition of hypoxia-induced HIF1alpha protein accumulation in wild type human U251 cells at 1 and 10 uM incubated for 8 hrs under hypoxic condition", "format": "cell-based", "details": "U-251"}, "[13]": {"biological_target": "T1, Hypoxia-inducible factor 1-alpha", "experiment": "Inhibition of HIF1alpha protein accumulation in wild type human U251 cells at 10 uM incubated for 16 hrs under normoxic condition", "format": "cell-based", "details": "U-251"}, "[14]": {"tested_on": "U-251", "experiment": "Inhibition of hypoxia-induced HIF1beta protein accumulation in wild type human U251 cells at 1 and 10 uM incubated for 8 hrs under hypoxic condition", "format": "cell-based"}, "[15]": {"tested_on": "U-251", "experiment": "Inhibition of hypoxia-induced HIF1beta protein accumulation in wild type human U251 cells at 1 and 10 uM incubated for 8 hrs under normoxic condition", "format": "cell-based"}, "[16]": {"biological_target": "T1, Hypoxia-inducible factor 1-alpha", "experiment": "Inhibition of human HIF1alpha-mediated VEGF mRNA expression in wild type human U251 cells at 1 uM incubated for 16 hrs under hypoxic condition", "format": "cell-based", "details": "U-251"}, "[17]": {"biological_target": "T1, Hypoxia-inducible factor 1-alpha", "experiment": "Inhibition of human HIF1alpha-mediated VEGF mRNA expression in wild type human U251 cells at 10 uM incubated for 16 hrs under hypoxic condition", "format": "cell-based", "details": "U-251"}, "[18]": {"biological_target": "T1, Hypoxia-inducible factor 1-alpha", "experiment": "Inhibition of human HIF1alpha-mediated VEGF mRNA expression in wild type human U251 cells at 1 uM incubated for 8 hrs under hypoxic condition (reference value: 3.5 No unit)", "format": "cell-based", "details": "U-251"}, "[19]": {"biological_target": "T1, Hypoxia-inducible factor 1-alpha", "experiment": "Inhibition of human HIF1alpha-mediated VEGF mRNA expression in wild type human U251 cells at 10 uM incubated for 8 hrs under hypoxic condition (reference value: 3.5 No unit)", "format": "cell-based", "details": "U-251"}, "[20]": {"biological_target": "T1, Hypoxia-inducible factor 1-alpha", "experiment": "Inhibition of human HIF1alpha-mediated VEGF mRNA expression in wild type human U251 cells at 1 uM incubated for 16 hrs under normoxic condition (Rvb =2.9 No unit)", "format": "cell-based", "details": "U-251"}, "[21]": {"biological_target": "T1, Hypoxia-inducible factor 1-alpha", "experiment": "Inhibition of human HIF1alpha-mediated VEGF mRNA expression in wild type human U251 cells at 10 uM incubated for 16 hrs under normoxic condition (Rvb =2.9 No unit)", "format": "cell-based", "details": "U-251"}},
  "note": "Activity calls are given as the source filed them. The calls are words filed in the database; no cut-off is given here.",
  "data": [
    {"compound": "C[C@@]12C(=O)c3cccc(O)c3C(=O)[C@@H]1C[C@@H]1C(=CC[C@@H]3C(=O)NC(=O)[C@@H]31)[C@@H]2c1ccc(C(F)(F)F)cc1", "note": "(racemic)", "values": [
      {"measurement": "EC50", "setting": "[1]", "result": 6.7, "unit": "µM"},
      {"measurement": "EC50", "setting": "[2]", "result": "> 20", "unit": "µM"},
      {"measurement": "Ratio EC50", "setting": "[3]", "result": ">3"}
    ]},
    {"compound": "C[C@@]12C[C@@H]3C(=CC[C@@H]4C(=O)NC(=O)[C@@H]43)[C@H](c3ccc(C(F)(F)F)cc3)[C@@H]1C(=O)c1ccccc1C2=O", "note": "(racemic)", "values": [
      {"measurement": "EC50", "setting": "[1]", "result": 2.3, "unit": "µM"},
      {"measurement": "EC50", "setting": "[2]", "result": "> 20", "unit": "µM"},
      {"measurement": "Ratio EC50", "setting": "[3]", "result": ">8.6"},
      {"measurement": "inhibition at 10 µM", "setting": "[4]", "result": 29, "unit": "%"},
      {"measurement": "inhibition at 10 µM", "setting": "[5]", "result": 45, "unit": "%"},
      {"measurement": "fold change (FC)", "setting": "[6]", "result": 0.8},
      {"measurement": "fold change (FC)", "setting": "[7]", "result": 0.5},
      {"measurement": "fold change (FC)", "setting": "[8]", "result": 0.7},
      {"measurement": "fold change (FC)", "setting": "[9]", "result": 0.21},
      {"measurement": "inhibition", "setting": "[10]", "result": "Active"},
      {"measurement": "Activity", "setting": "[11]", "result": "Non-toxic"},
      {"measurement": "inhibition", "setting": "[12]", "result": "Dose-dependent effect"},
      {"measurement": "inhibition", "setting": "[13]", "result": "Active"},
      {"measurement": "inhibition", "setting": "[14]", "result": "inactive"},
      {"measurement": "inhibition", "setting": "[15]", "result": "inactive"},
      {"measurement": "inhibition", "setting": "[16]", "result": 35, "unit": "%"},
      {"measurement": "inhibition", "setting": "[17]", "result": 59, "unit": "%"},
      {"measurement": "fold change (FC)", "setting": "[18]", "result": 3},
      {"measurement": "fold change (FC)", "setting": "[19]", "result": 1.6},
      {"measurement": "fold change (FC)", "setting": "[20]", "result": 1.9},
      {"measurement": "fold change (FC)", "setting": "[21]", "result": 1.2}
    ]},
    {"compound": "C[C@@]12C[C@@H]3C(=CC[C@@H]4C(=O)N(CCC(=O)O)C(=O)[C@@H]43)[C@H](c3ccc(Br)cc3)[C@@H]1C(=O)c1ccccc1C2=O", "note": "(racemic)", "values": [
      {"measurement": "EC50", "setting": "[1]", "result": 1.4, "unit": "µM"},
      {"measurement": "EC50", "setting": "[2]", "result": "> 20", "unit": "µM"},
      {"measurement": "Ratio EC50", "setting": "[3]", "result": ">14"},
      {"measurement": "inhibition at 10 µM", "setting": "[4]", "result": 43, "unit": "%"},
      {"measurement": "inhibition at 10 µM", "setting": "[5]", "result": 78, "unit": "%"},
      {"measurement": "fold change (FC)", "setting": "[6]", "result": 0.8},
      {"measurement": "fold change (FC)", "setting": "[7]", "result": 0.4},
      {"measurement": "fold change (FC)", "setting": "[8]", "result": 0.7},
      {"measurement": "fold change (FC)", "setting": "[9]", "result": 0.2},
      {"measurement": "inhibition", "setting": "[10]", "result": "Active"},
      {"measurement": "Activity", "setting": "[11]", "result": "Non-toxic"},
      {"measurement": "inhibition", "setting": "[12]", "result": "Dose-dependent effect"},
      {"measurement": "inhibition", "setting": "[13]", "result": "Active"},
      {"measurement": "inhibition", "setting": "[14]", "result": "inactive"},
      {"measurement": "inhibition", "setting": "[15]", "result": "inactive"},
      {"measurement": "inhibition", "setting": "[16]", "result": 38, "unit": "%"},
      {"measurement": "inhibition", "setting": "[17]", "result": 69, "unit": "%"},
      {"measurement": "fold change (FC)", "setting": "[18]", "result": 2.7},
      {"measurement": "fold change (FC)", "setting": "[19]", "result": 1.7},
      {"measurement": "fold change (FC)", "setting": "[20]", "result": 1.6},
      {"measurement": "fold change (FC)", "setting": "[21]", "result": 0.9}
    ]},
    {"compound": "COc1cccc2c1C(=O)[C@@H]1C[C@@H]3C(=CC[C@@H]4C(=O)NC(=O)[C@@H]43)[C@H](c3ccc(C(F)(F)F)cc3)[C@]1(C)C2=O", "note": "(racemic)", "values": [
      {"measurement": "EC50", "setting": "[1]", "result": 6.7, "unit": "µM"},
      {"measurement": "EC50", "setting": "[2]", "result": "> 20", "unit": "µM"},
      {"measurement": "Ratio EC50", "setting": "[3]", "result": ">3"}
    ]},
    {"compound": "COc1cccc2c1C(=O)[C@@H]1C[C@@H]3C(=CC[C@@H]4C(=O)N(CCC(=O)O)C(=O)[C@@H]43)[C@H](c3ccc(Br)cc3)[C@]1(C)C2=O", "note": "(racemic)", "values": [
      {"measurement": "EC50", "setting": "[1]", "result": 15.5, "unit": "µM"},
      {"measurement": "EC50", "setting": "[2]", "result": "> 20", "unit": "µM"},
      {"measurement": "Ratio EC50", "setting": "[3]", "result": ">1.4"}
    ]},
    {"compound": "C[C@@]12C[C@@H]3C(=CC[C@@H]4C(=O)NC(=O)[C@@H]43)[C@H](c3ccc(C(F)(F)F)cc3)[C@]1(C)C(=O)c1ccccc1C2=O", "note": "(racemic)", "values": [
      {"measurement": "EC50", "setting": "[1]", "result": 7.8, "unit": "µM"},
      {"measurement": "EC50", "setting": "[2]", "result": "> 20", "unit": "µM"},
      {"measurement": "Ratio EC50", "setting": "[3]", "result": ">2.7"}
    ]},
    {"compound": "C[C@@]12C[C@@H]3C(=CC[C@@H]4C(=O)N(CCC(=O)O)C(=O)[C@@H]43)[C@H](c3ccc(F)cc3)[C@@H]1C(=O)c1ccccc1C2=O", "note": "(racemic)", "values": [
      {"measurement": "EC50", "setting": "[1]", "result": 4.1, "unit": "µM"},
      {"measurement": "EC50", "setting": "[2]", "result": 8.7, "unit": "µM"},
      {"measurement": "Ratio EC50", "setting": "[3]", "result": 2.15}
    ]},
    {"compound": "CC[C@@]1(O)C(=O)OCc2c1cc1n(c2=O)Cc2cc3c(CN(C)C)c(O)ccc3nc2-1", "note": "[TOPOTECAN]", "values": [
      {"measurement": "EC50", "setting": "[2]", "result": "> 20", "unit": "µM"}
    ]}
  ]
}
